Drawing on patent US20260184707A1, “PHARMACEUTICAL COMPOUNDS FOR THE TREATMENT OF COMPLEMENT MEDIATED DISORDERS” (ALEXION PHARMACEUTICALS, INC., priority 2022, published 2026), this text covers IC50 for 21 compounds.

This assay has as its target T1, Human complement C1s enzyme (Homo sapiens, UniProt P09871).
T1 construct: purified from human serum, Complement Technology, Inc; purchased Complement Technology, Inc; host or cells: human serum (plasma-derived native protein)
T1 sequence (P09871 438-688 limits assumed): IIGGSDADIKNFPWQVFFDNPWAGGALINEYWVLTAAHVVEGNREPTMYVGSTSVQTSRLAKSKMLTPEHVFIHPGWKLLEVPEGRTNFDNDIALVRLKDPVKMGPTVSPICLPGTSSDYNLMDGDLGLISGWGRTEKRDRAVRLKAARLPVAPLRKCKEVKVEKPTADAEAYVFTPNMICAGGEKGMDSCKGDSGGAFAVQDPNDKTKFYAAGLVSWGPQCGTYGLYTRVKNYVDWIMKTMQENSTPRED
T1 sequence (P09871 16-437 partner limits assumed): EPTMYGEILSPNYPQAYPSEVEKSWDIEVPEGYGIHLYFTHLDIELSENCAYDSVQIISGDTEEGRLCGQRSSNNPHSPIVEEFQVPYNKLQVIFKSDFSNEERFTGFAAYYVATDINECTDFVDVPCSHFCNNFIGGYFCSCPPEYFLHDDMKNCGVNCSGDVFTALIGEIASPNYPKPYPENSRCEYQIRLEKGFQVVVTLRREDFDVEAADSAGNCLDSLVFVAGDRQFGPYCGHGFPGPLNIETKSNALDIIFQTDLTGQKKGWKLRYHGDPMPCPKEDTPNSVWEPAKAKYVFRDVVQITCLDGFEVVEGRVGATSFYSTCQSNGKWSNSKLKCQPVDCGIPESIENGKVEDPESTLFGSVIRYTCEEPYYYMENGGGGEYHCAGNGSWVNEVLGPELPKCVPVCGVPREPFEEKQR
Description: Human C1s enzyme assay. The assay is classed as biochemical. Conditions: human complement C1s enzyme 1.16 nM, substrate Z-L-Lys-SBzl, A405; read-out: IC50 (Stars). The method in brief:
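Thioesterase activity followed colorimetrically (DTNB, A405, 30-s reads) using 100 μM Z-L-Lys-SBzl substrate. Enzyme, human serum-derived C1s at 1.16 nM final, was incubated with test compound for 5 min, room temperature, pH 7.5 Tris buffer with 1 M NaCl. Rate-versus-concentration data fitted by nonlinear regression for IC50.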

Bounds are passed on as bounds.

For the compound `C[C@@H](Nc1cnc(N2CCCCC2)n(CC(=O)NCc2cc3cnccc3[nH]2)c1=O)c1ccc2oc3ccccc3c2c1` [Compound 361, (R)-N-((1H-pyrrolo[3,2-c]pyridin-2-yl)methyl)-2-(5-((1-(dibenzo[b,d]furan-2-yl)ethyl)-amino)-6-oxo-2-(piperidin-1-yl)pyrimidin-1(6H)-yl)acet-amide], the IC50 was below 100 nM.

In the case of `C[C@@H](Nc1cncn(CC(=O)NCc2cc3cnccc3[nH]2)c1=O)c1coc(-c2ccccc2)n1` [Compound 362, (R)-N-((1H-pyrrolo[3,2-c]pyridin-2-yl)methyl)-2-(6-oxo-5-((1-(2-phenyloxazol-4-yl)-ethyl)amino)pyrimidin-1(6H)-yl)acetamide], the IC50 lay in the range of 100 to 1000 nM.

`COCc1ncc(N[C@H](C)c2ccc3oc4ccccc4c3c2)c(=O)n1CC(=O)NCc1cc2cnccc2[nH]1` [Compound 365, (R)—N-((1H-pyrrolo[3,2-c]pyridine-2-yl)methyl)-2-(5-((1-(dibenzo[b,d]furan-2-yl)ethyl)amino)-2-(methoxymethyl)-6-oxopyrimidin-1(6H)-yl)acetamide]: the IC50 was 100 to 1000 nM.

Turning to `C[C@@H](Nc1cn(C)c(=O)n(CC(=O)NCc2cc3cnccc3[nH]2)c1=O)c1ccc2oc3ccccc3c2c1` [Compound 366, (R)—N-((1H-pyrrolo[3,2-c]pyridine-2-yl)methyl)-2-(5-((1-(dibenzo[b,d]furan-2-yl)ethyl)amino)-3-methyl-2,6-dioxo-3,6-dihydropyrimidin-1(2H)-yl)acetamide], the IC50 is above 1000 nM.

For `C[C@@H](Nc1cnc(N2CCCC2)n(CC(=O)NCc2cc3cnccc3[nH]2)c1=O)c1ccc2oc3ccccc3c2c1` [Compound 367, (R)—N-((1H-pyrrolo[3,2-c]pyridin-2-yl)methyl)-2-(5-((1-(dibenzo[b,d]furan-2-yl)ethyl)amino)-6-oxo-2-(pyrrolidin-1-yl)pyrimidin-1(6H)-yl)acetamide], the IC50 was above 1000 nM.

On to `C[C@@H](Nc1cnc(N2CC(F)C2)n(CC(=O)NCc2cc3cnccc3[nH]2)c1=O)c1ccc2oc3ccccc3c2c1` [Compound 368, (R)-N-((1H-pyrrolo[3,2-c]pyridin-2-yl)methyl)-2-(5-((1-(dibenzo[b,d]furan-2-yl)ethyl)-amino)-2-(3-fluoroazetidin-1-yl)-6-oxopyrimidin-1(6H)-yl)-acetamide], for which the IC50 was above 1000 nM.

Consider `C[C@@H](Nc1cnc(N2CCC(O)C2)n(CC(=O)NCc2cc3cnccc3[nH]2)c1=O)c1ccc2oc3ccccc3c2c1` (stereo partly drawn) [Compound 369, N-((1H-pyrrolo[3,2-c]pyridin-2-yl)methyl)-2-(5-(((R)-1-(dibenzo[b,d]furan-2-yl)ethyl)-amino)-2-(3-hydroxypyrroli-din-1-yl)-6-oxopyrimidin-1(6H)-yl)acetamide], for which the IC50 lay within 100 to 1000 nM.

Regarding `C[C@@H](Nc1cnc(N2CCCC(O)C2)n(CC(=O)NCc2cc3cnccc3[nH]2)c1=O)c1ccc2oc3ccccc3c2c1` (stereo partly drawn) [Compound 370, N-((1H-pyrrolo[3,2-c]pyridin-2-yl)methyl)-2-(5-(((R)-1-(dibenzo[b,d]furan-2-yl)ethyl)-amino)-2-(3-hydroxypiperidin-1-yl)-6-oxopyrimidin-1(6H)-yl)acetamide], the IC50 lay in the range of 100 to 1000 nM.

For the compound `C[C@@H](Nc1cnc(N2CC3CC3C2)n(CC(=O)NCc2cc3cnccc3[nH]2)c1=O)c1ccc2oc3ccccc3c2c1` (stereo partly drawn) [Compound 371, N-((1H-pyrrolo[3,2-c]pyridin-2-yl)methyl)-2-(2-(3-azabicyclo [3.1.0]hexan-3-yl)-5-(((R)-1-(dibenzo[b,d]furan-2-yl)ethyl)-amino)-6-oxopyrimidin-1(6H)-yl)acetamide], the IC50 is above 1000 nM.

Regarding `C[C@@H](Nc1cnc(-c2ccc(C3(F)COC3)cc2)n(CC(=O)NCc2cc3cnccc3[nH]2)c1=O)c1ccc2oc3ccccc3c2c1` [Compound 372, (R)—N-((1H-pyrrolo[3,2-c]pyridine-2-yl)methyl)-2-(5-((1-(dibenzo[b,d]furan-2-yl)ethyl)amino)-2-(4-(3-fluorooxetan-3-yl)phenyl)-6-oxopyrimidin-1(6H)-yl)acetamide], the IC50 was below 100 nM.

Regarding `C[C@@H](Nc1cnc(N2CC3(CCC3)C2)n(CC(=O)NCc2cc3cnccc3[nH]2)c1=O)c1ccc2oc3ccccc3c2c1` [Compound 373, (R)-N-((1H-pyrrolo[3,2-c]pyridin-2-yl)methyl)-2-(5-((1-(dibenzo[b,d]furan-2-yl)ethyl)-amino)-6-oxo-2-(2-azaspiro [3.3]heptan-2-yl)pyrimidin-1(6H)-yl)acetamide], the IC50 is above 1000 nM.

As to `C[C@@H](Nc1cnc(N2CC3(C2)CC(F)(F)C3)n(CC(=O)NCc2cc3cnccc3[nH]2)c1=O)c1ccc2oc3ccccc3c2c1` [Compound 374, (R)-N-((1H-pyrrolo[3,2-c]pyridin-2-yl)methyl)-2-(5-((1-(dibenzo[b,d]furan-2-yl)ethyl)-amino)-2-(6,6-difluoro-2-aza-spiro[3.3]heptan-2-yl)-6-oxo-pyrimidin-1(6H)-yl)acetamide], the IC50 was above 1000 nM.

For the compound `C[C@@H](Nc1cnc(N2CCNCC2)n(CC(=O)NCc2cc3cnccc3[nH]2)c1=O)c1ccc2oc3ccccc3c2c1` [Compound 376, (R)—N-((1H-pyrrolo[3,2-c]pyridine-2-yl)methyl)-2-(5-((1-(dibenzo[b,d]furan-2-yl)ethyl)amino)-6-oxo-2-(piperazin-1-yl)pyrimidin-1(6H)-yl)acetamide], the IC50 was below 100 nM.

For the compound `C[C@@H](Nc1cnc(-c2ccc(O[C@@H]3CO[C@H]4[C@@H]3OC[C@H]4O)cc2)n(CC(=O)NCc2cc3cnccc3[nH]2)c1=O)c1ccc2oc3ccccc3c2c1` [Compound 377, N-((1H-pyrrolo[3,2-c]pyridine-2-yl)methyl)-2-(5-(((R)-1-(dibenzo[b,d]furan-2-yl)ethyl)amino)-2-(4-(((3R,3aR,6R,6aR)-6-hydroxyhexahydrofuro[3,2-b]furan-3-yl)oxy)phenyl)-6-oxopyrimidin-1(6H)-yl)acetamide], the IC50 was below 100 nM.

As for `Cc1ncc(N[C@H](C)c2ccc3oc4ccccc4c3c2)c(=O)n1CC(=O)NCc1cc2cnccc2[nH]1` [Compound 378, (R)-N-((1H-pyrrolo[3,2-c]pyridin-2-yl)methyl)-2-(5-((1-(dibenzo[b,d]furan-2-yl)ethyl)-amino)-2-methyl-6-oxopyrimi-din-1(6H)-yl)acetamide], the half-inhibitory concentration (IC50) was above 1000 nM.

As for `C[C@@H](Nc1cnc(N2CCC(F)(F)CC2)n(CC(=O)NCc2cc3cnccc3[nH]2)c1=O)c1ccc2oc3ccccc3c2c1` [Compound 379, (R)-N-((1H-pyrrolo[3,2-c]pyridin-2-yl)methyl)-2-(5-((1-(dibenzo[b,d]furan-2-yl)ethyl)-amino)-2-(4,4-difluoropiperi-din-1-yl)-6-oxopyrimidin-1(6H)-yl)acetamide], the IC50 is above 1000 nM.

As for `C[C@@H](Nc1cnc(N2CCC(O)CC2)n(CC(=O)NCc2cc3cnccc3[nH]2)c1=O)c1ccc2oc3ccccc3c2c1` [Compound 380, (R)-N-((1H-pyrrolo[3,2-c]pyridin-2-yl)methyl)-2-(5-((1-(dibenzo[b,d]furan-2-yl)ethyl)-amino)-2-(4-hydroxypiperidin-1-yl)-6-oxopyrimidin-1(6H)-yl)acetamide], the IC50 lay within 100 to 1000 nM.

For the compound `CC1CCCN(c2ncc(N[C@H](C)c3ccc4oc5ccccc5c4c3)c(=O)n2CC(=O)NCc2cc3cnccc3[nH]2)C1` (stereo partly drawn) [Compound 381, N-((1H-pyrrolo[3,2-c]pyridin-2-yl)methyl)-2-(5-(((R)-1-(dibenzo[b,d]furan-2-yl)ethyl)-amino)-2-(3-methylpiperidin-1-yl)-6-oxopyrimidin-1(6H)-yl)acetamide], the IC50 is above 1000 nM.

With `C[C@@H](Nc1cnc(N2CCC3(CC2)OCCO3)n(CC(=O)NCc2cc3cnccc3[nH]2)c1=O)c1ccc2oc3ccccc3c2c1` [Compound 382, (R)-N-((1H-pyrrolo[3,2-c]pyridin-2-yl)methyl)-2-(5-((1-(dibenzo[b,d]furan-2-yl)ethyl)-amino)-6-oxo-2-(1,4-dioxa-8-azaspiro[4.5]decan-8-yl)pyr-imidin-1(6H)-yl)acetamide], the half-inhibitory concentration (IC50) was below 100 nM.

Turning to `C[C@@H](Nc1cnc(N2CC3CCC2C3)n(CC(=O)NCc2cc3cnccc3[nH]2)c1=O)c1ccc2oc3ccccc3c2c1` (stereo partly drawn) [Compound 383, N-((1H-pyrrolo[3,2-c]pyridine-2-yl)methyl)-2-(2-(2-azabicyclo[2.2.1]heptan-2-yl)-5-(((R)-1-(dibenzo[b,d]furan-2-yl)ethyl)amino)-6-oxopyrimidin-1(6H)-yl)acetamide], the IC50 was above 1000 nM.

On to `C[C@@H](Nc1cnc(N2CCSCC2)n(CC(=O)NCc2cc3cnccc3[nH]2)c1=O)c1ccc2oc3ccccc3c2c1` [Compound 384, (R)-N-((1H-pyrrolo[3,2-c]pyridin-2-yl)methyl)-2-(5-((1-(dibenzo[b,d]furan-2-yl)ethyl)-amino)-6-oxo-2-thiomorpho-linopyrimidin-1(6H)-yl)acet-amide], for which the IC50 is 100 to 1000 nM.

As usually defined, the IC50 is the concentration at which inhibition is half-maximal.
